Data published in the NIST ThermoML archive (doi:10.1021/je201211f).
± gives the expanded uncertainty stated by the source.

Assays:
[1] = refractive index (Na D-line) (dimensionless); xn = mol fraction of the nth substance listed; details: 298.15 K, 101 kPa, Liquid
[2] = xn = mol fraction of the nth substance listed; details: 101 kPa, Liquid; for mass density: Vibrating tube method; for viscosity: Capillary tube (Ostwald / Ubbelohde) method

Cc1ccccc1C [1,2-dimethylbenzene] + CC(=O)O
[1]
Details	refractive index
x2 = 0.0852	1.4965 ± 0.0007
x2 = 0.1881	1.4875 ± 0.0007
x2 = 0.2447	1.4816 ± 0.0007
x2 = 0.3206	1.4747 ± 0.0007
x2 = 0.3894	1.4672 ± 0.0007
x2 = 0.4729	1.4579 ± 0.0007
x2 = 0.5569	1.4472 ± 0.0007
x2 = 0.636	1.4363 ± 0.0007
x2 = 0.7151	1.424 ± 0.0007
x2 = 0.8031	1.4099 ± 0.0007
x2 = 0.8817	1.3951 ± 0.0007
x2 = 0.9589	1.379 ± 0.0007

[2]
Details	mass density, 293.15 K [kg/m3]	mass density, 298.15 K [kg/m3]	mass density, 303.15 K [kg/m3]	viscosity, 298.15 K [mPa·s]
x2 = 0.0479	882.96 ± 0.33	878.72 ± 0.33	874.46 ± 0.33	–
x2 = 0.0852	–	–	–	0.7491 ± 0.0084
x2 = 0.1264	888.76 ± 0.33	884.42 ± 0.32	880.07 ± 0.32	–
x2 = 0.1881	–	–	–	0.7412 ± 0.0083
x2 = 0.2399	898.21 ± 0.31	893.74 ± 0.31	889.26 ± 0.31	–
x2 = 0.2447	–	–	–	0.7448 ± 0.0082
x2 = 0.2632	900.31 ± 0.31	895.82 ± 0.31	891.31 ± 0.31	–
x2 = 0.3036	904.17 ± 0.31	899.62 ± 0.31	895.06 ± 0.3	–
x2 = 0.3206	–	–	–	0.7457 ± 0.0081
x2 = 0.3894	–	–	–	0.7476 ± 0.0081
x2 = 0.4089	915.71 ± 0.3	911.04 ± 0.3	906.34 ± 0.3	–
x2 = 0.4323	918.49 ± 0.3	913.77 ± 0.3	909.03 ± 0.3	–
x2 = 0.4729	–	–	–	0.7532 ± 0.008
x2 = 0.479	924.47 ± 0.31	919.7 ± 0.3	914.91 ± 0.3	–
x2 = 0.5609	935.9 ± 0.32	930.9 ± 0.3	926.08 ± 0.28	–
x2 = 0.5694	–	–	–	0.7667 ± 0.008
x2 = 0.6332	947.71 ± 0.32	942.68 ± 0.3	937.66 ± 0.28	–
x2 = 0.6388	–	–	–	0.7838 ± 0.008
x2 = 0.7151	–	–	–	0.8113 ± 0.0081
x2 = 0.7184	964.07 ± 0.33	958.92 ± 0.3	953.75 ± 0.28	–
x2 = 0.7912	980.62 ± 0.34	975.33 ± 0.3	970.03 ± 0.27	–
x2 = 0.8031	–	–	–	0.8592 ± 0.0083
x2 = 0.8814	1005.53 ± 0.37	1000.08 ± 0.3	994.74 ± 0.25	–
x2 = 0.8817	–	–	–	0.9274 ± 0.0085
x2 = 0.9589	–	–	–	1.035 ± 0.009
x2 = 0.9652	1034.87 ± 0.31	1029.28 ± 0.31	1023.69 ± 0.31	–
